From patent EP2739628B1
Read-outs that look alike come from different tables or passages of the source.

Settings: rcm bond

## CCOC(=O)C1C/C=C/C[C@H](NC(=O)OC(C)(C)C)c2cc(ccn2)-c2ccc(NC(=O)OC)cc2N1 (stereo partly shown)
From C=CCC(Nc1cc(NC(=O)OC)ccc1-c1ccnc([C@H](CC=C)NC(=O)OC(C)(C)C)c1)C(=O)OCC, Grubbs II
  ring closure, yield of all isomers: 47%

## COC(=O)Nc1ccc2c(c1)NC(=O)[C@H](C)C=CC[C@H](NC(=O)OC(C)(C)C)c1nc-2cn1COCC[Si](C)(C)C
From C=CC[C@H](NC(=O)OC(C)(C)C)c1nc(-c2ccc(NC(=O)OC)cc2NC(=O)[C@H](C)C=C)cn1COCC[Si](C)(C)C, Grubbs 2nd generation catalyst (with pTsOH monohydrate), dichloromethane, 9.73 mM, 40.0 °C, 21.5 h
  ring closure, yield of all isomers: 41%

## COC(=O)Nc1ccc2c(c1)N[C@@H](C(=O)OC)CC=CC[C@H](NC(=O)OC(C)(C)C)c1nc-2cn1COCC[Si](C)(C)C
From C=CC[C@H](NC(=O)OC(C)(C)C)c1nc(-c2ccc(NC(=O)OC)cc2N[C@H](CC=C)C(=O)OC)cn1COCC[Si](C)(C)C, Grubbs II, DCE, 40.0 mM, 120.0 °C, 0.33 h
  ring closure, yield of all isomers: 23%

## COC(=O)Nc1ccc2c(c1)NC(=O)C/C=C/C[C@H](NC(=O)OC(C)(C)C)c1cc-2ccn1
From C=CCC(=O)Nc1cc(NC(=O)OC)ccc1-c1ccnc([C@H](CC=C)NC(=O)OC(C)(C)C)c1, Grubbs II, DCM, 3.99 mM, 45.0 °C, 19.0 h
  ring closure, yield of all isomers: 26%
